Test results from article PMC8560897, “Bioevaluation and Targeted Modification of Temporin-FL From the Skin Secretion of Dark-Spotted Frog (Pelophylax nigromaculatus)” (Frontiers in Molecular Biosciences, 2021).
No end group written: not given here.

What was measured:
S. aureus (NCTC 10788) = type: cell-based, Staphylococcus aureus; conditions: NCTC 10788, 18 h
Description: (§1) Antimicrobial activity was evaluated by assessing minimal inhibitory concentrations (MICs) and minimal bactericidal concentrations (MBCs). The tested microorganisms comprised three Gram-positive bacterial strains, namely S. aureus (NCTC 10788) and MRSA strains (NCTC 12493 and ATCC 43300), E. coli (NCTC 10418), which is a Gram-negative bacterial strain, and C. albicans (NCYC 1467), a yeast species. Standard microbes were cultured in Muller-Hinton Broth (MHB) and suspended to obtain 5 × 10^5 CFU/ml. Subsequently, the equal volume microorganisms solutions were treated with a 2-fold dilution of peptides, the final concentration of the peptides ranged between 512 and 1 μM. The positive control of bacteria strains S. aureus, MRSA NCTC 12493 and E. coli is 0.2 mg/ml norfloxacin, 16 μM mellitin was used as C. albicans positive control and 0.2 mg/ml vancomycin as a positive control in ATCC 43300 MRSA strains. The solutions were incubated in 96-well plates used for measuring MICs followed for 18 h. The MBC values were assessed based on observations of the colony cultured on Muller-Hinton agar (MHA). The antimicrobial assay was performed in triplicate following the procedure applied in previous studies described ([Huang et al., 2017]).

MRSA ATCC 43300 [1] = type: cell-based, Methicillin-resistant Staphylococcus aureus; conditions: ATCC 43300, 18 h
Description: as §1

MRSA NCTC 12493 = type: cell-based, Methicillin-resistant Staphylococcus aureus; conditions: NCTC 12493, 18 h
Description: as §1

MRSA ATCC 43300 biofilm = type: cell-based, Methicillin-resistant Staphylococcus aureus; conditions: ATCC 43300, 48 h
Description: (§2) We evaluated the antibiofilm activity of the three AMPs by applying a crystal violet staining assay following previous research with minor modifications ([Chen et al., 2018]), to determine the minimal biofilm inhibitory concentrations (MBICs) and the minimal biofilm eradication concentrations (MBECs). The tested MRSA bacterial strains (NCTC 12493 and ATCC 43300) were incubated and diluted with MHB to achieve a bacterial concentration of 5 × 10^5 CFU/ml. The peptides were undergone a 2-fold dilution and were incubated with diluted MRSA to determine MBIC values. For the MBEC assay, the diluted bacterial culture was incubated for 48 h to obtain a fully grown biofilm, which was treated with various concentrations of peptides dissolved in MHB and incubated for 24 h at 37°C. The positive control in MBIC and MBEC determination is 0.2 mg/ml vancomycin for MRSA ATCC 43300 strain and the aliquote of norfloxacin for MRSA NCTC 12493.

MRSA NCTC 12493 biofilm = type: cell-based, Methicillin-resistant Staphylococcus aureus; conditions: NCTC 12493, 48 h
Description: as §2

[2] = system: defibrinated erythrocytes isolated from whole horse blood; type: cell-based; conditions: red cells of horse
Text: Following a previous study ([Huang et al., 2017]), we evaluated the hemolytic activity of three peptides using defibrinated erythrocytes isolated from whole horse blood (TCS Biosciences Ltd., Buckingham, United Kingdom). Phosphate-buffered saline (PBS) and 1% Triton X-100 were used as negative and positive controls, respectively, and 1% DMSO/PBS was used as the vehicle control. The HC50 and the therapeutic index (TI = HC50/the geometric mean of MICs against tested bacterial strains of peptide) were calculated to determine the therapeutic potential.

in vitro = type: cell-based; conditions: human
Description: Human keratinocyte cell line HaCaT (No.1101HUM-PUMC000373) was obtained from the National Infrastructure of Cell Line Resource (Beijing, China) and cultured in high-glucose Dulbecco’s modified Eagle medium (DMEM), containing 10% fetal bovine serum (FBS) and 1% penicillin and streptomycin (Thermo Fisher Scientific Co., Waltham, MA, United States). The grown cells were digested and quantificationally harvested in a 96-wells plate of cell density of 5 × 10^4×cells/ml. After 24 h incubation, the original medium in wells was replaced with fresh medium containing peptides with 2-fold serial dilution, the final concentrations of peptides ranging from […] to 1 μM. When the cells were treated with peptides for 24 h, the cell medium was changed into 100 μl of 10% CCK-8 solution and incubated for 4 h. The absorbance at 450 nm reflected the cell viability in each well. The growth control was cell culture without peptides and blank control was fresh DMEM without cells.

C. albicans (NCYC 1467) = type: cell-based; conditions: NCYC 1467, 18 h
Description: as §1

E. coli (NCTC 10418) = type: cell-based; conditions: for Antimicrobial activity MBC / Antimicrobial activity MIC: NCTC 10418, 18 h
Description: as §1

MRSA ATCC 43300 [3] = type: cell-based, Methicillin-resistant Staphylococcus aureus; conditions: not told
Description: The bactericidal activity of cationic peptides resulted from membrane disruption. DNA or RNA that leaked out of the cell was stained with SYTOX™ Green Nucleic Acid Stain (Invitrogen Life Technologies, Carlsbad, CA, United States). The MRSA ATCC 43300 bacterial strain was used to evaluate the membrane disruptive potency of the three peptides. The assay was performed according to the procedure described previously with some modifications ([Chen et al., 2018]). Peptides at different concentrations (4 × MIC, 2 × MIC and 1 × MIC) were incubated with the re-suspended bacterial solution at a concentration of 5 × 10^6 CFU/well in the 96-well black plate for 3 h without light. The positive control is 70% isopropanol. SYTOX green dye (the final concentration of 1%) was then added to each well, and the permeabilizing potency was measured as fluorescent intensity using a SpeactraMax i3x plate reader (Molecular Devices, CA, United States). All experiments were done in five replicates for statistical significance.

[4] = system: MRSA (ATCC 43300) biofilm formation; test: Quantitative biofilm formation assay; type: cell-based, Methicillin-resistant Staphylococcus aureus
Description: Based on the previous study of quantitative biofilm formation assay ([Badmasti et al., 2015]; [Liu et al., 2020]), the crystal violet staining method with moderate modifications was applied for analyzing the capability of MRSA (ATCC 43300) forming biofilms when treated with different concentrations of peptides. Specifically, MRSA strain was cultured in MHB medium at 37°C overnight. Then the bacterial culture was subcultured in fresh MHB medium. The quantificational bacterial suspension (5 × 10^5 CFU/ml) was added into a 96-wells plate together with the tested peptides at different concentrations (2 × MBIC, 1 × MBIC, 1/2 × MBIC and 1/4 × MBIC). The MHB medium without bacteria was negative control and MRSA culture solution was the positive control. The cut-off optical density (ODc) was the mean ± deviation value of the absorbance of negative control at 595 nm. The biofilm formation ability of bacteria samples with different concentrations of peptides were divided into four groups: the negative biofilm formation (−) was the OD595nm ≤ ODc, the weak biofilm formation (+) was the ODc < OD595nm ≤ 2 × ODc, the moderate biofilm formation (++) represented the 2 × ODc < OD595nm ≤ 4 × ODc, and the strong biofilm formation (+++) indicated the OD595nm > 4 × ODc.

[5] = Circular-dichroism spectroscopy, helix content (BESTSEL); type: physicochemical; conditions: CD
Description: The physiochemical structural analysis entailed website prediction and circular-dichroism (CD) spectroscopy as described previously ([Liu et al., 2017]; [Sang et al., 2018]; [Zhou et al., 2019]). Briefly, temporin-FL and two analogues were dissolved in 10 mM NH4Ac or 10 mM NH4Ac with 50% 2,2,2-trifluoroethanol (TFE) to determine their conformation in different solutions. The 10 mM NH4Ac solution provides a pH stable buffering environment to stabilize peptides and also to prevent system noise and not interfere with CD signals. The results of the CD spectroscopy were inputted into the BESTSEL CD spectrum online analysis tool (http://bestsel.elte.hu/index.php). HeliQuest (https://heliquest.ipmc.cnrs.fr/), and I-Tasser (http://zhanglab.ccmb.med.umich.edu/I-TASSER) were respectively used to determine the helical wheels plots and to predict the 3D secondary structure.

[6] = system: tested Gram-positive bacterial strains and fungi; type: cell-based; conditions: 18 h
Description: as §1

[7] = system: MRSA (ATCC 43300) biofilm; test: Scanning electron microscopy of MRSA biofilms; type: cell-based, Methicillin-resistant Staphylococcus aureus; conditions: 1 × MBEC, 24 h
Description: Silicon wafers were cut into small squares (5 mm × 5 mm) and placed at the bottom of a 24-well plate. Each well was then filled with 1 ml of sub-cultured MRSA (ATCC 43300) in MHB at a concentration of 5 × 10^5 CFU/ml and incubated at 37°C in a humid shaking incubator for 48 h to enable the formation of visible biofilms on the silicon wafers. Peptides at concentrations of 1 × MBEC and 4 × MBEC were incubated with PBS-washed MRSA biofilm for 24 h. After the incubation, the silicon wafer in each well was first washed in PBS and then fixed in 2.5% glutaraldehyde at 4°C for 4 h. The fixed biofilm was dehydrated using gradient ethanol solution (30, 50, 70, 80, 90, 95, and 100%) at 10-min intervals. The air-dried biofilm samples were coated with gold film using a LEICA-EM-ACE600 sputter coater instrument (Leica, Germany) and transferred to the field emission scanning electron microscopy (FESEM) system (ZEISS-SUPRA55, Germany) operating at 5 kV to observe the morphology of the peptide-treated biofilm.

Substance | Antimicrobial activity MBC (S. aureus (NCTC 10788)) | Antimicrobial activity MIC (S. aureus (NCTC 10788)) | Antimicrobial activity MBC (MRSA ATCC 43300 [1]) | Antimicrobial activity MIC (MRSA ATCC 43300 [1]) | Antimicrobial activity MBC (MRSA NCTC 12493) | Antimicrobial activity MIC (MRSA NCTC 12493) | Antibiofilm activity MBEC (MRSA ATCC 43300 biofilm) | Antibiofilm activity MBIC (MRSA ATCC 43300 biofilm) | Antibiofilm activity MBEC (MRSA NCTC 12493 biofilm) | Antibiofilm activity MBIC (MRSA NCTC 12493 biofilm) | Hemolysis effect HC50 [2] | IC50 at 24 h (in vitro) | Antimicrobial activity MBC (C. albicans (NCYC 1467)) | Antimicrobial activity MIC (C. albicans (NCYC 1467)) | Antimicrobial activity MBC (E. coli (NCTC 10418)) | Antimicrobial activity MIC (E. coli (NCTC 10418)) | Membrane permeability ranking among the three peptides (MRSA ATCC 43300 [3]) | Membrane permeabilization, SYTOX Green fluorescent intensity (MRSA ATCC 43300 [3]) | also measured
FIPLVSGLFKLL-NH2 [Temporin-FLa, FIPLVSGLFKLL-NH2] | 8 µM | 4 µM | 8 µM | 4 µM | 16 µM | 4 µM | 8 µM | 4 µM | 32 µM | 8 µM | 74.02 µM | 46.6 µM | 32 µM | 8 µM | 128 µM | 128 µM | greatest permeability | highest fluorescent intensity | 
FIPVSGLFKLL-NH2 [Temporin-FLb, FIPVSGLFKLL-NH2] | 16 µM | 8 µM | 128 µM | 64 µM | 32 µM | 16 µM | 128 µM | 64 µM | 128 µM | 64 µM | 356.0 µM | 375 µM | 128 µM | 32 µM | 128 µM | 128 µM | lowest | relatively weak | 
H-FIPLVSGLFSKLL-NH2 [Temporin-FL, FIPLVSGLFSKLL-NH2] | 16 µM | 16 µM | 32 µM | 32 µM | 64 µM | 32 µM | 64 µM | 32 µM | 64 µM | 32 µM | 157.4 µM | 83.4 µM | 64 µM | 32 µM | 128 µM | 128 µM | moderate permeabilizing activity | relatively weak | Biofilm formation ([4]; MRSA ATCC 43300, peptide at 1/2× MBIC): ++ (the moderate biofilm formation (++) represented the 2 × ODc < OD595nm ≤ 4 × ODc); Biofilm formation ([4]; MRSA ATCC 43300, peptide at 1/4× MBIC): ++ (the moderate biofilm formation (++) represented the 2 × ODc < OD595nm ≤ 4 × ODc); Helix in NH4Ac ([5]; 10 mM NH4Ac): 16.7%; Helix in 50%TFE/NH4Ac ([5]; 10 mM NH4Ac with 50% TFE): 92.3%; Activity against Gram-negative bacteria E. coli (in words) (E. coli (NCTC 10418); E. coli): inactive; MICs against tested Gram-positive bacterial strains and fungi [6]: 16 to 32 µM; Biofilm disruption observed by SEM [7]: moderate bacterial colonies reduction
